From patent US8771665B2 (Cocrystal Discovery, Inc., priority 2010, dated 2014) come the findings set out here.

Read-outs that look alike come from different tables or passages of the source.

This assay addresses T1, HCV1b NS5B polymerase delta 21 (Hepatitis C virus genotype 1b, UniProt P26663).
T1 construct: purified HCV1b NS5B polymerase delta 21
As to the kind of experiment: RNA-Dependent RNA HCV NS5B (Polymerase) Assay and IC50 Determination. It is filed as biochemical. On the procedure:
RNA-Dependent RNA HCV NS5B (Polymerase) Assay and IC50 Determination
In vitro RNA-dependent RNA polymerase activity was determined in a reaction mixture (50 μL) containing 50 mM Tris-HCl, pH 7.5, 5 mM MgCl2, 1 mM dithiothreitol, 0.5% Triton® X-100, 10 μM of UTP, 0.1-0.5 μCi of α-^32P UTP (Perkin Elmer Life Sciences), 1 μg of polyA:U16 (Midland Oligo), and 0.6 μg of purified HCV1b NS5B polymerase delta 21. Different concentrations of compounds were added to the reaction mixtures. The reaction was carried out at RT (23° C.) for 60 min and then stopped by the addition of 100 μL of 50 mM EDTA. The reaction mixtures were filtered through either a DE81 membrane or a positively charged nylon membrane, and the membranes were then extensively washed with 30 mM sodium citrate, pH 7.0 and 300 mM NaCl. The radiolabeled RNA products were quantitated using a Storm™ Phosphorlmager™ (GE Life Sciences). IC50 values were calculated using GraFit 6 and GraphPad Prism 5 from triplicate assays.

T1 sequence (P26663 2420-2989): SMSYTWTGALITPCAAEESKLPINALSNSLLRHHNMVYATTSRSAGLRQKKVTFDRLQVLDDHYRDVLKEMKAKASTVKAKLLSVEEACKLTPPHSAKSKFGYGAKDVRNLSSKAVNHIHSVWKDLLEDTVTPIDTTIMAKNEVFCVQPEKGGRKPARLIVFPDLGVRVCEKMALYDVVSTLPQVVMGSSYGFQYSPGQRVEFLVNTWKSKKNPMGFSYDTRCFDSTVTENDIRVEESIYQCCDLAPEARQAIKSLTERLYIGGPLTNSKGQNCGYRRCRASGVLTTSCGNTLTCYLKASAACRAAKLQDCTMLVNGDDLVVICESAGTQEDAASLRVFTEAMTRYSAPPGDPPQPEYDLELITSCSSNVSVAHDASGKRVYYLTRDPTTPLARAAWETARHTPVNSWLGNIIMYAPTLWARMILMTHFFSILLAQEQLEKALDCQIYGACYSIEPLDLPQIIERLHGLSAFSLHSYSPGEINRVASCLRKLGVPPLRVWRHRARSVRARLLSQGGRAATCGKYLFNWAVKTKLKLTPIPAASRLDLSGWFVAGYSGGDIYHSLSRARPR

The term IC50 denotes the concentration needed to halve the response being measured. Low readings indicate greater potency, high ones weaker potency. As for `CCCC(C)C#Cc1cc(C2=C(C3CCC(C)CC3)CN(CC)CC2)c(C(=O)O)s1` (stereo not drawn) [Example 030, 3-[1-Ethyl-5-(4-methyl-cyclohexyl)-1,2,3,6-tetrahydro-pyridin-4-yl]-5-(3-methyl-hex-1-ynyl)-thiophene-2-carboxylic acid], the IC50 was over 10 µM. Same read-out and setting: the value for `CC1CCC(C2=C(c3cc(-c4ccc(-c5cn6ncccc6n5)cc4)sc3C(=O)O)CCN(C)C2)CC1` (stereo not drawn) [Example 164, 5-(4-Imidazo[1,2-b]pyridazin-2-yl-phenyl)-3-[1-methyl-5-(4-methyl-cyclohexyl)-1,2,3,6-tetrahydro-pyridin-4-yl]-thiophene-2-carboxylic acid] was 3 to 10 µM. Same read-out and setting: under `CCN1CCC(c2cc(-c3ccccc3)sc2C(=O)O)=C(C2CCC(C)CC2)C1` (stereo not drawn) [Example 044, 3-[1-Ethyl-5-(4-methyl-cyclohexyl)-1,2,3,6-tetrahydro-pyridin-4-yl]-5-phenyl-thiophene-2-carboxylic acid] stands under 3 µM; under `CC1CCC(C2=C(c3cc(-c4ccccc4)sc3C(=O)O)CCN(Cc3nc4ncccn4n3)C2)CC1` (stereo not drawn) [Example 092, 3-[5-(4-Methyl-cyclohexyl)-1-[1,2,4]triazolo[1,5-a]pyrimidin-2-ylmethyl-1,2,3,6-tetrahydro-pyridin-4-yl]-5-phenyl-thiophene-2-carboxylic acid], 3 to 10 µM; under `CC1CCC(C2=C(c3cc(-c4ccccc4)sc3C(=O)O)CCN(C(=O)OC(C)(C)C)C2)CC1` (stereo not drawn) [Example 037, 4-(2-Carboxy-5-phenyl-thiophen-3-yl)-5-(4-methyl-cyclohexyl)-3,6-dihydro-2H-pyridine-1-carboxylic acid tert-butyl ester], over 10 µM. Same read-out and setting: under `CC1CCC(C2=C(c3cc(-c4ccc(-c5cc6ncccn6n5)cc4)sc3C(=O)O)CN(C)CC2)CC1` (stereo not drawn) [Example 169, 3-[1-Methyl-4-(4-methyl-cyclohexyl)-1,2,5,6-tetrahydro-pyridin-3-yl]-5-(4-pyrazolo[1,5-a]pyrimidin-2-yl-phenyl)-thiophene-2-carboxylic acid] stands under 3 µM; under `CC1CCC(C2=C(c3cc(-c4ccc(-c5nc6cccnc6n5C)cc4)sc3C(=O)O)CCN(C)C2)CC1` (stereo not drawn) [Example 139, 5-[4-(3-Methyl-3H-imidazo[4,5-b]pyridin-2-yl)-phenyl]-3-[1-methyl-5-(4-methyl-cyclohexyl)-1,2,3,6-tetrahydro-pyridin-4-yl]-thiophene-2-carboxylic acid], over 10 µM; under `CCN1CCC(c2cc(-c3cccc(N)c3)sc2C(=O)O)=C(C2CCC(C)CC2)C1` (stereo not drawn) [Example 026, 5-(3-Amino-phenyl)-3-[1-ethyl-5-(4-methyl-cyclohexyl)-1,2,3,6-tetrahydro-pyridin-4-yl]-thiophene-2-carboxylic acid], 3 to 10 µM. Compound `CCN1CCC(c2cc(-c3ccc(NC(=O)c4cscn4)cc3)sc2C(=O)O)=C(C2CCC(C)CC2)C1` (stereo not drawn) [Example 019, 3-[1-Ethyl-5-(4-methyl-cyclohexyl)-1,2,3,6-tetrahydro-pyridin-4-yl]-5-{4-[(thiazole-4-carbonyl)-amino]-phenyl}-thiophene-2-carboxylic acid] returned an IC50 of under 3 µM.

For the compound `CC1CCC(C2=C(c3cc(C#CC(C)(C)C)sc3C(=O)O)CN(CC3CCOCC3)CC2)CC1` (stereo not drawn) [Example 065, 5-(3,3-Dimethyl-but-1-ynyl)-3-[4-(4-methyl-cyclohexyl)-1-(tetrahydro-pyran-4-ylmethyl)-1,2,5,6-tetrahydro-pyridin-3-yl]-thiophene-2-carboxylic acid], the concentration for half-maximal inhibition (IC50) is under 3 µM. Same read-out and setting: under `CC1CCC(C2=C(c3cc(-c4ccccc4)sc3C(=O)O)CCN(Cc3ccc(Br)cn3)C2)CC1` (stereo not drawn) [Example 149, 3-[1-(5-Bromo-pyridin-2-ylmethyl)-5-(4-methyl-cyclohexyl)-1,2,3,6-tetrahydro-pyridin-4-yl]-5-phenyl-thiophene-2-carboxylic acid] stands 3 to 10 µM. The same measure, in the same setting: under `CCN1CCC(c2cc(-c3cccc(NC(=O)c4cscn4)c3)sc2C(=O)O)=C(C2CCC(C)CC2)C1` (stereo not drawn) [Example 025, 3-[1-Ethyl-5-(4-methyl-cyclohexyl)-1,2,3,6-tetrahydro-pyridin-4-yl]-5-{3-[(thiazole-4-carbonyl)-amino]-phenyl}-thiophene-2-carboxylic acid] stands over 10 µM.

Compound `CC1CCC(C2=C(c3cc(-c4ccc(NC(=O)c5cscn5)cc4)sc3C(=O)OCOC(=O)C(C)(C)C)CCN(C)C2)CC1` (stereo not drawn) [Example 101, 3-[1-Methyl-5-(4-methyl-cyclohexyl)-1,2,3,6-tetrahydro-pyridin-4-yl]-5-{4-[(thiazole-4-carbonyl)-amino]-phenyl}-thiophene-2-carboxylic acid 2,2-dimethyl-propionyloxymethyl ester] displayed a concentration for half-maximal inhibition (IC50) of over 10 µM. On the same count and under the same terms, under `CCN1CCC(c2cc(-c3cccc(NC(=O)c4cccs4)c3)sc2C(=O)O)=C(C2CCC(C)CC2)C1` (stereo not drawn) [Example 027, 3-[1-Ethyl-5-(4-methyl-cyclohexyl)-1,2,3,6-tetrahydro-pyridin-4-yl]-5-{3-[(thiophene-2-carbonyl)-amino]-phenyl}-thiophene-2-carboxylic acid] stands over 10 µM.

Consider `CC1CCC(C2=C(c3cc(-c4ccccc4)sc3C(=O)O)CCN(CCC(=O)O)C2)CC1` (stereo not drawn) [Example 083, 3-[1-(2-Carboxy-ethyl)-5-(4-methyl-cyclohexyl)-1,2,3,6-tetrahydro-pyridin-4-yl]-5-phenyl-thiophene-2-carboxylic acid], for which the IC50 was in the range of 3 to 10 µM.

In the case of `CC1CCC(C2=C(c3cc(C#CC(C)(C)C)sc3C(=O)O)CN(C)CC2)CC1` (stereo not drawn) [Example 112, 5-(3,3-Dimethyl-but-1-ynyl)-3-[1-methyl-4-(4-methyl-cyclohexyl)-1,2,5,6-tetrahydro-pyridin-3-yl]-thiophene-2-carboxylic acid], the 50% inhibitory concentration (IC50) was under 3 µM. On the same count and under the same terms, under `CC1CCC(C2=C(c3cc(-c4ccccc4)sc3C(=O)O)CCNC2)CC1` (stereo not drawn) [Example 040, 3-[5-(4-Methyl-cyclohexyl)-1,2,3,6-tetrahydro-pyridin-4-yl]-5-phenyl-thiophene-2-carboxylic acid] stands under 3 µM.

As to `CC1CCC(C2=C(c3cc(C#CC(C)(C)C)sc3C(=O)O)CN(CCF)CC2)CC1` (stereo not drawn) [Example 124, 5-(3,3-Dimethyl-but-1-ynyl)-3-[1-(2-fluoro-ethyl)-4-(4-methyl-cyclohexyl)-1,2,5,6-tetrahydro-pyridin-3-yl]-thiophene-2-carboxylic acid], the IC50 is under 3 µM.

Compound `CC1CCC(C2=C(c3cc(-c4ccccc4)sc3C(=O)O)CCN(Cc3ccccc3)C2)CC1` (stereo not drawn) [Example 079, 3-[1-Benzyl-5-(4-methyl-cyclohexyl)-1,2,3,6-tetrahydro-pyridin-4-yl]-5-phenyl-thiophene-2-carboxylic acid] gave an IC50 (purified HCV1b NS5B polymerase delta 21, polyA:U16, RT 60 min, triplicate assays) of 3 to 10 µM. `CC1CCC(C2=C(c3cc(C#CC(C)(C)O)sc3C(=O)O)CCN(C)C2)CC1` (stereo not drawn) [Example 011, 5-(3-Hydroxy-3-methyl-but-1-ynyl)-3-[1-methyl-5-(4-methyl-cyclohexyl)-1,2,3,6-tetrahydro-pyridin-4-yl]-thiophene-2-carboxylic acid] came in with an IC50 of under 3 µM. The same measure, in the same setting: the value for `CCN1CCC(c2cc(-c3ccc(NC(=O)c4cncs4)cc3)sc2C(=O)O)=C(C2CCC(C)CC2)C1` (stereo not drawn) [Example 050, 3-[1-Ethyl-5-(4-methyl-cyclohexyl)-1,2,3,6-tetrahydro-pyridin-4-yl]-5-{4-[(thiazole-5-carbonyl)-amino]-phenyl}-thiophene-2-carboxylic acid] was 3 to 10 µM. In turn, `CC1CCC(C2=C(c3cc(C#CC(C)(C)C)sc3C(=O)O)CNCC2)CC1` (stereo not drawn) [Example 111, 5-(3,3-Dimethyl-but-1-ynyl)-3-[4-(4-methyl-cyclohexyl)-1,2,5,6-tetrahydro-pyridin-3-yl]-thiophene-2-carboxylic acid] had an IC50 of under 3 µM.

`CC1CCC(C2=C(c3cc(C#CC(C)(C)C)sc3C(=O)O)CN(CC3CCOC3)CC2)CC1` (stereo not drawn) [Example 117, 5-(3,3-Dimethyl-but-1-ynyl)-3-[4-(4-methyl-cyclohexyl)-1-(tetrahydro-furan-3-ylmethyl)-1,2,5,6-tetrahydro-pyridin-3-yl]-thiophene-2-carboxylic acid] gave an IC50 of under 3 µM. Compound `CCN1CCC(c2cc(C#CC(C)(C)N(C)C)sc2C(=O)O)=C(C2CCC(C)CC2)C1` (stereo not drawn) [Example 023, 5-(3-Dimethylamino-3-methyl-but-1-ynyl)-3-[1-ethyl-5-(4-methyl-cyclohexyl)-1,2,3,6-tetrahydro-pyridin-4-yl]-thiophene-2-carboxylic acid] showed an IC50 of under 3 µM. On the same count and under the same terms, the value for `CCN1CCC(c2cc(-c3ccc(NC(=O)c4cc(C)on4)cc3)sc2C(=O)O)=C(C2CCC(C)CC2)C1` (stereo not drawn) [Example 053, 3-[1-Ethyl-5-(4-methyl-cyclohexyl)-1,2,3,6-tetrahydro-pyridin-4-yl]-5-{4-[(5-methyl-isoxazole-3-carbonyl)-amino]-phenyl}-thiophene-2-carboxylic acid] was 3 to 10 µM; that for `Cc1cnc2cc(-c3ccc(-c4cc(C5=C(C6CCC(C)CC6)CN(C)CC5)c(C(=O)O)s4)cc3)nn2c1` (stereo not drawn) [Example 163, 3-[1-Methyl-5-(4-methyl-cyclohexyl)-1,2,3,6-tetrahydro-pyridin-4-yl]-5-[4-(6-methyl-pyrazolo[1,5-a]pyrimidin-2-yl)-phenyl]-thiophene-2-carboxylic acid] was 3 to 10 µM. Compound `CC1CCC(C2=C(c3cc(-c4ccccc4)sc3C(=O)O)CCN(CCc3ccccc3)C2)CC1` (stereo not drawn) [Example 078, 3-[5-(4-Methyl-cyclohexyl)-1-phenethyl-1,2,3,6-tetrahydro-pyridin-4-yl]-5-phenyl-thiophene-2-carboxylic acid] showed an IC50 of over 10 µM.
